These results are taken from US5053418A, “Antiprotozoal agents” (Burroughs Wellcome Co., priority 1983, dated 1991).

One may read the inhibition in vivo as the change of the read-out against control, counted positive when it falls.

The test system of the test is P.yoelii. Description: In vivo effect on P.yoelii in mice (inhibition of parasitaemia). As to conditions: for inhibition in vivo at 3 mg/kg: 3.0 mg/Kg × 7; for inhibition in vivo at 2.5 mg/kg: 2.5 mg/Kg × 7; for inhibition in vivo at 5 mg/kg: 5.0 mg/Kg × 7; for inhibition in vivo at 0.5 mg/kg: 0.50 mg/Kg × 7; for inhibition in vivo at 1 mg/kg: 1.0 mg/Kg × 7; for ED50 for naphthoquinone: 5760 min. The method, then: The naphthoquinone and the pyridinol were each suspended in 0.25% (w/v) celacol in water by milling for 16-24 hours at 26° C. The suspensions were subsequently serially diluted with 0.25% (w/v) celacol in water. At time 0, 0.1 ml of a suspension of 10^7 P.yoelii-parasitised red blood cells/ml of phosphate buffered saline were injected intravenously into 15-20 g mice through a tail vein. Groups of 5 mice per treatment were dosed orally at times 6, 22, 30, 46, 54, 70 and 78 hours with 0.2 ml of the drug suspension. Tail-blood smears were taken at 96 hours, stained with Giemsa and the percentage of red blood cells infected determined and compared to untreated, infected controls. Percent inhibition was correlated with dose to provide ED50 values for each drug alone. In subsequent experiments dilutions of the two drugs, alone and in combination were used, and the percentage inhibition of parasitaemia and ED50 values (of each drug at fixed concentrations of the other) were determined. The results are shown respectively in Tables V and VI. A number of combinations of clopidol (4-pyridinol) and naphthoquinones were assayed and compared with each drug alone for their antimalarial effect against P.yoelii in vivo by the method of Example 4.

The mark [1] stands for this setting: Plasmodium yoelii, po, 96 h, naphthoquinone alone.
[2] abbreviates: naphthoquinone 2.5 + clopidol 1.4 mg/Kg × 7.
Where [3] appears, read: naphthoquinone 2.5 + clopidol 4.3 mg/Kg × 7.
Setting [4] is: naphthoquinone 5.0 + clopidol 1.4 mg/Kg × 7.
[5] abbreviates: naphthoquinone 5.0 + clopidol 4.3 mg/Kg × 7.

Structures are written as SMILES.

For `CCCCCCCCCC1=C(O)C(=O)c2ccccc2C1=O` [(CH2)8 Me, 2-n-nonyl-3-hydroxy-1,4-naphthoquinone], the inhibition in vivo at 3 mg/kg under setting [1] came out at 3%. For the same compound, the inhibition in vivo at 9 mg/kg (Plasmodium yoelii, po, 96 h, naphthoquinone alone, 9.0 mg/Kg × 7) came to 69%. Also, the “% inhibition of parasitaemia (combination)” value (“% inhibition of parasitaemia” for short) (naphthoquinone 3.0 + clopidol 1.4 mg/Kg × 7) is 42%, the “% inhibition of parasitaemia” value (naphthoquinone 3.0 + clopidol 4.3 mg/Kg × 7) is 76%, the “% inhibition of parasitaemia” value (naphthoquinone 9.0 + clopidol 1.4 mg/Kg × 7) is reported as 88% and the “% inhibition of parasitaemia” value (naphthoquinone 9.0 + clopidol 4.3 mg/Kg × 7) stood at 99%.
Turning to `CC(C)(C)OC1CCC(C2=C(O)C(=O)c3ccccc3C2=O)CC1` (stereo not shown), the inhibition in vivo at 0.13 mg/kg (Plasmodium yoelii, po, 96 h, naphthoquinone alone, 0.13 mg/Kg × 7) was found to be 1%. In addition, for the setting “Plasmodium yoelii, po, 96 h, naphthoquinone alone, 0.25 mg/Kg × 7”, the inhibition in vivo at 0.25 mg/kg was 5%. The “% inhibition of parasitaemia” value (naphthoquinone 0.13 + clopidol 4.3 mg/Kg × 7) was 84%, the “% inhibition of parasitaemia” value (naphthoquinone 0.13 + clopidol 13 mg/Kg × 7) is listed as 31%, the “% inhibition of parasitaemia” value (naphthoquinone 0.25 + clopidol 4.3 mg/Kg × 7) is 97% and the “% inhibition of parasitaemia” value (naphthoquinone 0.25 + clopidol 13 mg/Kg × 7) amounted to 80%.
Consider `CC1(C)CCC(C2=C(O)C(=O)c3ccccc3C2=O)CC1`, for which the inhibition in vivo at 2.5 mg/kg under setting [1] was 0%. In addition, the inhibition in vivo at 5 mg/kg under setting [1] was 0%. In addition, the “% inhibition of parasitaemia” value is 22% under setting [2], 45% under setting [3], 46% under setting [4] and 73% under setting [5].
Take `O=C1C(O)=C(C2CCC(c3ccccc3)CC2)C(=O)c2ccccc21` (stereo not shown): the inhibition in vivo at 0.04 mg/kg (Plasmodium yoelii, po, 96 h, naphthoquinone alone, 0.040 mg/Kg × 7) is 0%. Also, the inhibition in vivo at 0.05 mg/kg (Plasmodium yoelii, po, 96 h, naphthoquinone alone, 0.050 mg/Kg × 7) is 0%. Moreover, the “% inhibition of parasitaemia” value is, setting by setting: (naphthoquinone 0.040 + clopidol 1.9 mg/Kg × 7) 23%; (naphthoquinone 0.040 + clopidol 3.75 mg/Kg × 7) 39%; (naphthoquinone 0.050 + clopidol 1.9 mg/Kg × 7) 34%; (naphthoquinone 0.050 + clopidol 3.75 mg/Kg × 7) 73%.
In the case of `CC(=O)OC1=C(C2CCCCC2)C(=O)c2ccccc2C1=O`, the inhibition in vivo at 2.5 mg/kg under setting [1] is 2%. For the same compound, the inhibition in vivo at 5 mg/kg under setting [1] is 3%. For the same compound, the “% inhibition of parasitaemia” value under setting [2] is 3%, the “% inhibition of parasitaemia” value under setting [3] is given as 50%, the “% inhibition of parasitaemia” value under setting [4] was 22% and the “% inhibition of parasitaemia” value under setting [5] turned out to be 86%.
On to `O=C1C(O)=C(CCCCCCCCC2CCCCC2)C(=O)c2ccccc21`, for which the inhibition in vivo at 0.5 mg/kg under setting [1] came out at 7%. In addition, under setting [1], the inhibition in vivo at 1 mg/kg was 19%. Moreover, the “% inhibition of parasitaemia” value is, setting by setting: (naphthoquinone 0.50 + clopidol 2.5 mg/Kg × 7) 10%; (naphthoquinone 0.50 + clopidol 5.0 mg/Kg × 7) 45%; (naphthoquinone 1.0 + clopidol 2.5 mg/Kg × 7) 31%; (naphthoquinone 1.0 + clopidol 5.0 mg/Kg × 7) 55%.
Turning to `O=C1C(O)=C(C2CCCCC2)C(=O)c2ccccc21`, the inhibition in vivo at 1.5 mg/kg (Plasmodium yoelii, po, 96 h, naphthoquinone alone, 1.5 mg/Kg × 7) stood at 1%. The inhibition in vivo at 3 mg/kg under setting [1] is 15%. Moreover, the “% inhibition of parasitaemia” value (naphthoquinone 1.5 + clopidol 1.9 mg/Kg × 7) is 47%, the “% inhibition of parasitaemia” value (naphthoquinone 1.5 + clopidol 3.75 mg/Kg × 7) worked out at 76%, the “% inhibition of parasitaemia” value (naphthoquinone 3.0 + clopidol 1.9 mg/Kg × 7) stood at 64% and the “% inhibition of parasitaemia” value (naphthoquinone 3.0 + clopidol 3.75 mg/Kg × 7) stood at 97%.
As to `O=C1C(O)=C(C2CCC(c3ccc(Cl)cc3)CC2)C(=O)c2ccccc21` (stereo not shown), for the setting “Plasmodium yoelii, po, 96 h, naphthoquinone alone, 0.010 mg/Kg × 7”, the inhibition in vivo at 0.01 mg/kg turned out to be 5%. Also, the inhibition in vivo at 0.02 mg/kg (Plasmodium yoelii, po, 96 h, naphthoquinone alone, 0.020 mg/Kg × 7) was determined as 12%. The “% inhibition of parasitaemia” value (naphthoquinone 0.010 + clopidol 1.4 mg/Kg × 7) came to 29%, the “% inhibition of parasitaemia” value (naphthoquinone 0.010 + clopidol 4.3 mg/Kg × 7) amounted to 68%, the “% inhibition of parasitaemia” value (naphthoquinone 0.020 + clopidol 1.4 mg/Kg × 7) was determined as 55% and the “% inhibition of parasitaemia” value (naphthoquinone 0.020 + clopidol 4.3 mg/Kg × 7) turned out to be 90%.
With `CCC1(CC)CCC(C2=C(O)C(=O)c3ccccc3C2=O)CC1`, under setting [1], the inhibition in vivo at 0.5 mg/kg worked out at 5%. In addition, the inhibition in vivo at 1 mg/kg under setting [1] came to 4%. Besides, the “% inhibition of parasitaemia” value (naphthoquinone 0.50 + clopidol 1.4 mg/Kg × 7) was determined as 14%, the “% inhibition of parasitaemia” value (naphthoquinone 0.50 + clopidol 4.3 mg/Kg × 7) is on record as 54%, the “% inhibition of parasitaemia” value (naphthoquinone 1.0 + clopidol 1.4 mg/Kg × 7) was found to be 68% and the “% inhibition of parasitaemia” value (naphthoquinone 1.0 + clopidol 4.3 mg/Kg × 7) is 75%.
On to `O=C1C(O)=C(C2CCC(C3CCCCC3)CC2)C(=O)c2ccccc21` (stereo not shown) [2-(4-cyclohexylcyclohexyl)-3-hydroxy-1,4-naphthoquinone], for which the inhibition in vivo at 0.019 mg/kg (Plasmodium yoelii, po, 96 h, naphthoquinone alone, 0.019 mg/Kg/dose, 7 doses) is 13%. For the same compound, the inhibition in vivo at 0.037 mg/kg (Plasmodium yoelii, po, 96 h, naphthoquinone alone, 0.037 mg/Kg/dose, 7 doses) was 28%. The inhibition in vivo at 0.075 mg/kg (Plasmodium yoelii, po, 96 h, naphthoquinone alone, 0.075 mg/Kg/dose, 7 doses) came to 17%. Also, the inhibition in vivo at 0.15 mg/kg (Plasmodium yoelii, po, 96 h, naphthoquinone alone, 0.15 mg/Kg/dose, 7 doses) is 16%. For the same compound, the inhibition in vivo at 0.3 mg/kg (Plasmodium yoelii, po, 96 h, naphthoquinone alone, 0.30 mg/Kg/dose, 7 doses) is 74%. In addition, the inhibition in vivo at 0.6 mg/kg (Plasmodium yoelii, po, 96 h, naphthoquinone alone, 0.60 mg/Kg/dose, 7 doses) stood at 99%. Besides, the ED50 for naphthoquinone is on record as 0.224 (0.224 to 0.208) mg/Kg/dose (fixed clopidol 0.000 mg/kg/dose (alone)); 0.109 (0.125 to 0.0909) mg/Kg/dose (fixed clopidol 0.94 mg/kg/dose); 0.0762 (0.0975 to 0.0599) mg/Kg/dose (fixed clopidol 1.9 mg/kg/dose); 0.0519 (0.0599 to 0.0450) mg/Kg/dose (fixed clopidol 3.75 mg/kg/dose); 0.0219 (0.0274 to 0.0151) mg/Kg/dose (fixed clopidol 7.5 mg/kg/dose); 0.0197 (0.0242 to 0.0121) mg/Kg/dose (fixed clopidol 15. mg/kg/dose). In addition, the “% inhibition of parasitaemia” value runs as follows: (naphthoquinone 0.019 + clopidol 0.94 mg/Kg/dose) 16%; (naphthoquinone 0.019 + clopidol 1.9 mg/Kg/dose) 23%; (naphthoquinone 0.019 + clopidol 3.7 mg/Kg/dose) 11%; (naphthoquinone 0.019 + clopidol 7.5 mg/Kg/dose) 42%; (naphthoquinone 0.019 + clopidol 15 mg/Kg/dose) 48%; (naphthoquinone 0.037 + clopidol 0.94 mg/Kg/dose) 20%. Moreover, the “% inhibition of parasitaemia” value runs as follows: (naphthoquinone 0.037 + clopidol 1.9 mg/Kg/dose) 23%; (naphthoquinone 0.037 + clopidol 3.7 mg/Kg/dose) 32%; (naphthoquinone 0.037 + clopidol 7.5 mg/Kg/dose) 73%; (naphthoquinone 0.037 + clopidol 15 mg/Kg/dose) 77%; (naphthoquinone 0.075 + clopidol 0.94 mg/Kg/dose) 35%; (naphthoquinone 0.075 + clopidol 1.9 mg/Kg/dose) 45%. The “% inhibition of parasitaemia” value runs as follows: (naphthoquinone 0.075 + clopidol 3.7 mg/Kg/dose) 69%; (naphthoquinone 0.075 + clopidol 7.5 mg/Kg/dose) 86%; (naphthoquinone 0.15 + clopidol 0.94 mg/Kg/dose) 62%; (naphthoquinone 0.15 + clopidol 1.9 mg/Kg/dose) 80%; (naphthoquinone 0.15 + clopidol 3.7 mg/Kg/dose) 92%; (naphthoquinone 0.30 + clopidol 0.94 mg/Kg/dose) 96%. The “% inhibition of parasitaemia” value (naphthoquinone 0.30 + clopidol 1.9 mg/Kg/dose) was determined as 98%.
`CC(C)(C)C1CCC(C2=C(O)C(=O)c3ccccc3C2=O)CC1` (stereo not shown) [drawing 25]: the inhibition in vivo at 0.6 mg/kg (Plasmodium yoelii, po, 96 h, naphthoquinone alone, 0.6 mg/Kg × 7) came out at 24%. The inhibition in vivo at 0.9 mg/kg (Plasmodium yoelii, po, 96 h, naphthoquinone alone, 0.9 mg/Kg × 7) worked out at 35%. The “% inhibition of parasitaemia” value (naphthoquinone 0.6 + clopidol 2.5 mg/Kg × 7) worked out at 74%, the “% inhibition of parasitaemia” value (naphthoquinone 0.6 + clopidol 5.0 mg/Kg × 7) is 94%, the “% inhibition of parasitaemia” value (naphthoquinone 0.9 + clopidol 2.5 mg/Kg × 7) was 96% and the “% inhibition of parasitaemia” value (naphthoquinone 0.9 + clopidol 5.0 mg/Kg × 7) is recorded as 97%.
